Structures can show the parent of a compound that is named as a salt.
Each compound was assayed against T1, human PAH with the R408W mutation (Homo sapiens, UniProt P00439, R408W) (assay: Cell Based Phenylalanine Flux Assay). Settings: A375 R408W cells, 24 hrs with compound, then 20 μM sepiapterin and 800 μM 13C9,15N-Phenylalanine for 4 hours; 13C-Tyrosine by LC-MS; average where tested multiple times.
T1 construct: expressed in transfected cells
T1 sequence (P00439 1-452 R408W): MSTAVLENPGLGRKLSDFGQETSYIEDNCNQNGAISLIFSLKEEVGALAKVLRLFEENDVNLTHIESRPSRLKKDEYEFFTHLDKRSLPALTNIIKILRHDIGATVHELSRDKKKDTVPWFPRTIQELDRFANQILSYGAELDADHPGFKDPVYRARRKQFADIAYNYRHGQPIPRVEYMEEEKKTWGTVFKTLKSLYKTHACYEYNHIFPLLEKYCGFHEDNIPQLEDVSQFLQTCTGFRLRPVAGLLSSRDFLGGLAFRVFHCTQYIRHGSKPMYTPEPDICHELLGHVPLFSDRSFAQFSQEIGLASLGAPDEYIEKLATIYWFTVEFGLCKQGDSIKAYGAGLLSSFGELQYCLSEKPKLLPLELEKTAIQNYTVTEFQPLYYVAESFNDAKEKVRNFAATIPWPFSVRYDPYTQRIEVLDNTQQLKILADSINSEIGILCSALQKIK
Design: scale not given here

| AC50 | SMILES |
| --- | --- |
| E, E | O=C(c1oc(-c2cncnc2)nc1C(F)F)N1CCc2[nH]cnc2C1c1ncc2ccccc2n1 (stereo not drawn) |
| E, E | CC1CN(C(=O)c2oc(C(C)(C)O)nc2C(F)(F)F)C(c2cc3ccccc3cn2)c2nc[nH]c21 [(4S, 7R) diastereomer of (2-(2-hydroxypropan-2-yl)-4-(triflu] |
| E, E | O=C(c1ccnn1C(F)F)N1CCc2[nH]cnc2C1c1ncc2ccccc2n1 (stereo not drawn) |
| E, E | CC1CN(C(=O)c2oc(-c3ccccn3)nc2C(F)(F)F)C(c2cc3ccccc3cn2)c2nc[nH]c21 [(4S, 7R) diastereomer of (4-(isoquinolin-3-yl)-7-methyl-6,7-] |

Same assay, conditions: A375 R408W cells, 24 hrs with compound, then 20 μM sepiapterin and 800 μM 13C9,15N-Phenylalanine for 4 hours; 13C-Tyrosine by LC-MS; average where tested multiple times; read-out: AC50

| SMILES | AC50 |
| --- | --- |
| Cc1nnc(C(=O)N2CCc3[nH]cnc3C2c2ncc3ccccc3n2)o1 (stereo not drawn) | 1 to 5 µM |
| CC(C)(O)c1nc(C2CC2)c(C(=O)N2CCc3[nH]cnc3C2c2ccc3ccccc3n2)o1 (stereo not drawn) | 1 to 5 µM |
| Cc1nc(N2CCOCC2)oc1C(=O)N1CCc2[nH]cnc2C1c1ccc2ccccc2n1 (stereo not drawn) | 1 to 5 µM |
| Cc1nc(C(C)(C)F)oc1C(=O)N1CCc2[nH]cnc2C1c1cc2ccccc2cn1 (stereo not drawn) | 1 to 5 µM |
| CC(C)(O)c1cc(C(=O)N2CCc3[nH]cnc3C2c2ccc3ccccc3n2)on1 (stereo not drawn) | 1 to 5 µM |
| O=C(c1cnc(C2CC2)o1)N1CCc2[nH]cnc2C1c1cn2ccccc2n1 (stereo not drawn) | 1 to 5 µM |
| O=C(c1nsc2ccccc12)N1CCc2[nH]cnc2C1c1ccc2ccccc2n1 (stereo not drawn) | > 5 µM |
| CC(C)(O)c1nc(C2CC2)c(C(=O)N2CCc3[nH]cnc3C2c2cn3ccccc3n2)o1 (stereo not drawn) | 1 to 5 µM |
| CC1CN(C(=O)c2nnc(-c3cnn(C)c3)o2)C(c2cc3ccccc3cn2)c2nc[nH]c21 (stereo not drawn) | 1 to 5 µM |
| O=C(c1cnc(C(F)(F)F)o1)N1CCc2[nH]cnc2C1c1cn2ccccc2n1 (stereo not drawn) | 1 to 5 µM |
| COC(C)(C)c1nc(C)c(C(=O)N2CCc3[nH]cnc3C2c2ccc3ccccc3n2)o1 (stereo not drawn) | 1 to 5 µM |
| Cc1nc(-c2ccccn2)oc1C(=O)N1CCc2[nH]cnc2C1c1cn2ccccc2n1 (stereo not drawn) | 1 to 5 µM |

More lines, now with the values ahead:

| AC50 | SMILES |
| --- | --- |
| 1 to 5 µM | O=C(c1nnc(-c2ccccn2)o1)N1CCc2[nH]cnc2C1c1cn2ccccc2n1 (stereo not drawn) |
| > 5 µM | COC(=O)N1CC(C(=O)N2CCc3[nH]cnc3C2c2ccc3ccccc3n2)C1 (stereo not drawn) |
| > 5 µM | FC(F)c1nnc(N2CCc3[nH]cnc3[C@H]2c2ccc3ccccc3n2)o1 (single isomer, unassigned) |
| 1 to 5 µM | COCCc1ccc2c(C(=O)N3CCc4[nH]cnc4C3c3ccc4ccccc4n3)cnn2c1 (stereo not drawn) |
| 1 to 5 µM | O=C(c1nnc(-c2ccc(C(F)(F)F)cc2)o1)N1CCc2[nH]cnc2C1c1ccc2ccccc2n1 (stereo not drawn) |
| > 5 µM | COCc1ccc2c(C(=O)N3CCc4[nH]cnc4C3c3ccc4ccccc4n3)cnn2c1 (stereo not drawn) |

Same assay, conditions: A375 cells expressing human R408W PAH; 24 hrs compound incubation; 13C-Tyrosine by LC-MS; average where tested multiple times; read-out: AC50

| SMILES | AC50 |
| --- | --- |
| C[C@H]1CN(C(=O)c2nnc(C(C)(C)C)o2)[C@H](c2cc3ccccc3cn2)c2nc[nH]c21 [Example 428, (5-(tert-butyl)-1,3,4-oxadiazol-2-yl)((4R,7S)-4-(isoquinolin-3-yl)-7-methyl-6,7-dihydro-1H-imidazo[4,5-c]pyridin-5(4H)-yl)methanone] | 0.5 to 1 µM |
| O=C(Cc1ccccn1)N1CCc2[nH]cnc2[C@H]1c1cc2ccccc2cn1 [Example 374, (R)-1-(4-(isoquinolin-3-yl)-6,7-dihydro-1H-imidazo[4,5-c]pyridin-5(4H)-yl)-2-(pyridin-2-yl)ethanone] | < 0.5 µM |
| C[C@@H]1CN(C(=O)c2nnc(C3CC3)o2)[C@H](c2cc3ccccc3cn2)c2nc[nH]c21 [Example 513, (5-cyclopropyl-1,3,4-oxadiazol-2-yl)((4R,7R)-4-(isoquinolin-3-yl)-7-methyl-6,7-dihydro-1H-imidazo[4,5-c]pyridin-5(4H)-yl)methanone] | 0.5 to 1 µM |
| Cc1nc(C(C)(C)O)oc1C(=O)N1CCc2[nH]cnc2[C@@H]1c1ncc2ccccc2n1 [Example 142, (R)-(2-(2-hydroxypropan-2-yl)-4-methyloxazol-5-yl)(4-(quinazolin-2-yl)-6,7-dihydro-1H-imidazo[4,5-c]pyridin-5(4H)-yl)methanone hydrochloride] | > 5 µM |
| Cn1cc(C(=O)N2CCc3[nH]cnc3C2c2ccc3ccccc3n2)c(C(F)F)n1 (stereo in doubt) [Example 84, (S)-(3-(difluoromethyl)-1-methyl-1H-pyrazol-4-yl)(4-(quinolin-2-yl)-6,7-dihydro-1H-imidazo[4,5-c]pyridin-5(4H)-yl)methanone] | 1 to 5 µM |
| COCc1ncc(C(=O)N2CCc3[nH]cnc3[C@H]2c2cc3ccccc3cn2)o1 [Example 394, (R)-(4-(isoquinolin-3-yl)-6,7-dihydro-1H-imidazo[4,5-c]pyridin-5(4H)-yl)(2-(methoxymethyl)oxazol-5-yl)methanone] | 0.5 to 1 µM |
| C[C@@H]1CN(C(=O)c2cnc(C(C)(C)O)o2)[C@H](c2cc3ccccc3cn2)c2nc[nH]c21 [Example 398, (2-(2-hydroxypropan-2-yl)oxazol-5-yl)((4R,7R)-4-(isoquinolin-3-yl)-7-methyl-6,7-dihydro-1H-imidazo[4,5-c]pyridin-5(4H)-yl)methanone] | 1 to 5 µM |
| O=C(c1nnc(-c2cc[nH]n2)o1)N1CCc2[nH]cnc2C1c1ccc2ccccc2n1 (stereo in doubt) [Example 116, (S)-(5-(1H-pyrazol-3-yl)-1,3,4-oxadiazol-2-yl)(4-(quinolin-2-yl)-6,7-dihydro-1H-imidazo[4,5-c]pyridin-5(4H)-yl)methanone] | 1 to 5 µM |
| O=C(c1nnc(-c2ccncc2)o1)N1CCc2[nH]cnc2[C@H]1c1ncc2ccccc2n1 [Example 179, (S)-(5-(pyridin-4-yl)-1,3,4-oxadiazol-2-yl)(4-(quinazolin-2-yl)-6,7-dihydro-1H-imidazo[4,5-c]pyridin-5(4H)-yl)methanone] | < 0.5 µM |
| O=C(c1oc(-c2ccc(C(F)(F)F)cn2)nc1C(F)F)N1CCc2[nH]cnc2[C@H]1c1ncc2ccccc2n1 [Example 278, (S)-(4-(difluoromethyl)-2-(5-(trifluoromethyl)pyridin-2-yl)oxazol-5-yl)(4-(quinazolin-2-yl)-6,7-dihydro-1H-imidazo[4,5-c]pyridin-5(4H)-yl)methanone] | < 0.5 µM |
| Cn1cnc(-c2nnc(C(=O)N3CCc4[nH]cnc4[C@H]3c3cc4ccccc4cn3)o2)c1 [Example 443, (R)-(4-(isoquinolin-3-yl)-6,7-dihydro-1H-imidazo[4,5-c]pyridin-5(4H)-yl)(5-(1-methyl-1H-imidazol-4-yl)-1,3,4-oxadiazol-2-yl)methanone] | < 0.5 µM |
| CC(C)(O)c1ncc(C(=O)N2CCc3[nH]cnc3[C@H]2c2cc3ccccc3cn2)s1 [Example 328, (R)-(2-(2-hydroxypropan-2-yl)thiazol-5-yl)(4-(isoquinolin-3-yl)-6,7-dihydro-1H-imidazo[4,5-c]pyridin-5(4H)-yl)methanone] | 0.5 to 1 µM |

Now from value to compound:

| AC50 | SMILES |
| --- | --- |
| < 0.5 µM | Cc1nc(-c2ccccn2)oc1C(=O)N1CCc2[nH]cnc2[C@H]1c1ncc2ccccc2n1 [Example 193, (S)-(4-methyl-2-(pyridin-2-yl)oxazol-5-yl)(4-(quinazolin-2-yl)-6,7-dihydro-1H-imidazo[4,5-c]pyridin-5(4H)-yl)methanone] |
| 1 to 5 µM | O=C(c1nnc(-c2ccn(C(F)F)n2)o1)N1CCc2[nH]cnc2C1c1ccc2ccccc2n1 (stereo in doubt) [Example 95, (S)-(5-(1-(difluoromethyl)-1H-pyrazol-3-yl)-1,3,4-oxadiazol-2-yl)(4-(quinolin-2-yl)-6,7-dihydro-1H-imidazo[4,5-c]pyridin-5(4H)-yl)methanone] |
| 0.5 to 1 µM | CC(C)(C)c1ncc(C(=O)N2CCc3[nH]cnc3[C@H]2c2cn3ccccc3n2)s1 [Example 245, (R)-(2-(tert-butyl)thiazol-5-yl)(4-(imidazo[1,2-a]pyridin-2-yl)-6,7-dihydro-1H-imidazo[4,5-c]pyridin-5(4H)-yl)methanone] |
| 1 to 5 µM | O=C(c1oc(-c2ccccn2)nc1C1CC1)N1CCCc2[nH]cnc2[C@H]1c1cc2ccccc2cn1 (single isomer, unassigned) [Example 379] |
| > 5 µM | Fc1ccc(-c2nnc(N3CCc4[nH]cnc4[C@@H]3c3cc4ccccc4cn3)o2)cc1 [Example 336, (S)-2-(4-fluorophenyl)-5-(4-(isoquinolin-3-yl)-6,7-dihydro-1H-imidazo[4,5-c]pyridin-5(4H)-yl)-1,3,4-oxadiazole] |
| > 5 µM | O=C(c1nnc(-c2cnn(C(F)F)c2)o1)N1CCc2[nH]cnc2[C@@H]1c1ncc2ccccc2n1 [Example 186, (R)-(5-(1-(difluoromethyl)-1H-pyrazol-4-yl)-1,3,4-oxadiazol-2-yl)(4-(quinazolin-2-yl)-6,7-dihydro-1H-imidazo[4,5-c]pyridin-5(4H)-yl)methanone] |
| 0.5 to 1 µM | O=C(c1cncs1)N1CCc2[nH]cnc2C1c1ccc2ccccc2n1 (stereo in doubt) [Example 5, (R)-(4-(quinolin-2-yl)-6,7-dihydro-1H-imidazo[4,5-c]pyridin-5(4H)-yl)(thiazol-5-yl)methanone] |
| < 0.5 µM | CC(C)(O)c1nc(Br)c(C(=O)N2CCc3[nH]cnc3C2c2ccc3ccccc3n2)o1 (stereo in doubt) [Example 97, (R)-(4-bromo-2-(2-hydroxypropan-2-yl)oxazol-5-yl)(4-(quinolin-2-yl)-6,7-dihydro-1H-imidazo[4,5-c]pyridin-5(4H)-yl)methanone] |

From patent US20250262201A1, “COMPOUNDS AND METHODS USEFUL FOR STABILIZING PHENYLALANINE HYDROXYLASE MUTATIONS” (Agios Pharmaceuticals, Inc., priority 2022, published 2025)
